Data as given in patent US11034666B2, “Anti-inflammatory and antitumor 2-oxothiazoles and 2-oxothiophenes compounds” (Avexxin AS, priority 2013, dated 2021).

Target: T1, human GIVA cPLA2 (Homo sapiens, UniProt P47712)
T1 sequence (P47712 1-749): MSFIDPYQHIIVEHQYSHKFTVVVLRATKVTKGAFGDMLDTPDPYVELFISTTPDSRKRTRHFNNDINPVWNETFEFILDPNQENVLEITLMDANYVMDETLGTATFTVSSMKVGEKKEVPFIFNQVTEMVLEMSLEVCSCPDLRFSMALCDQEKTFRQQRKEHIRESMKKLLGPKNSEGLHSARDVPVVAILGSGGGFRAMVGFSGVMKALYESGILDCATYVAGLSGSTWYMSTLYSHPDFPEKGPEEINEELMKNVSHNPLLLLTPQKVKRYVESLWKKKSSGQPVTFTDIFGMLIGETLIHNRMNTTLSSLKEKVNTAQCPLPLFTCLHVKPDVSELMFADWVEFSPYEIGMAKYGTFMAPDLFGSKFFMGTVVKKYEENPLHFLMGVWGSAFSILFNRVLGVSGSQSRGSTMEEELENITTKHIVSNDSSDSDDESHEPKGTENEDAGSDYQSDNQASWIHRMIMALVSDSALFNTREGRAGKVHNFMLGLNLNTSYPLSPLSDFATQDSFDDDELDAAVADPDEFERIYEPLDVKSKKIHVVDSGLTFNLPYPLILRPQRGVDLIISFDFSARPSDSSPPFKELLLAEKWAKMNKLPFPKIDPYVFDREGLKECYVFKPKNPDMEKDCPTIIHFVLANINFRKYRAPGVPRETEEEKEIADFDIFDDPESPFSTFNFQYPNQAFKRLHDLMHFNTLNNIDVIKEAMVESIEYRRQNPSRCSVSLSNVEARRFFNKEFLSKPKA
Assay: In vitro vesicle assay, cPLA2
Assay type: biochemical
Settings: % inhibition at 1 μM oxothiazole; read-out: cPLA2 vesicle assay % Inhib
Procedure: The effect of the oxothiazoles synthesized on GIVA cPLA2 was measured in vesicles as previously described^51,52 with modifications.^53 The results are presented in Table 6 and are in full agreement with those using the micellar assay. […] From both assays, it is clear that the introduction of the ethyl ester group directly on the heterocyclic ring substantially increases the potency of inhibition. This group presumably develops additional interactions within the enzyme's active site. Comparing the results obtained in mixed micelles and in vesicles is obvious that Compound A stands out in this series of oxothiazoles
GIVA cPLA2 was measured as described^51,52 with modifications.^53 In short, recombinant human GIVA cPLA2 enzyme was pre-incubated with DMSO (1%) with or without inhibitor in assay buffer (80 sec at 37° C., 10 min at 25° C.). Lipid vesicles of L-α-1-palmitoyl-2-arachidonyl-[arachidonyl-1-^14C]-phosphatidylcholine (4.3 nmol) were dried under a steam of N2 (g). The dried lipid was re-suspended in 2 ml assay buffer and sonicated twice (7 min, output 3.5 and 50% duty cycles, on ice) in a Branson Sonifier 250 (Branson Ultrasonic Corporation, Danbury, Conn.). Sonicated lipid (0.2 μM) was added to the reaction and incubated for 1 h at 37° C. followed by addition of a chloroform/methanol stop buffer to terminate the enzymatic reaction. The reaction mixture was separated by centrifugation (5 min, 1640×g). The lower phase was transferred to a glass tube and dried under a steam of N2 (g), re-suspended in chloroform/methanol (9:1, by volume) and applied to a silica gel. Free [1-^14C]arachidonic acid and, L-α-1-palmitoyl-2-arachidonyl-[arachidonyl-1-^14C]-phosphatidylcholine were separated by thin layer chromatography and analyzed as previously described.^54

Row | Compound | inhibition at 1 µM [%]
1 | CCCCCCCCc1ccc(OCC(=O)c2nc(C(=O)OC)cs2)cc1 [Compound A, Methyl 2-(2-(4-octylphenoxy)acetyl)thiazole-4-carboxylate] | 74
2 | O=C(COc1ccc(-c2ccccc2)cc1)c1nccs1 [Compound B, 2-(Biphenyl-4-yloxy)-1-(thiazol-2-yl)ethanone] | 26
3 | O=C(COc1ccc(F)cc1)c1nccs1 [Compound C, 2-(4-Fluorophenoxy)-1-(thiazol-2-yl)ethanone] | 7
4 | O=C(COc1ccccc1)c1nccs1 [Compound D, 2-Phenoxy-1-(thiazol-2-yl)ethanone] | 26
5 | CCCCCCCCc1ccc(OCC(=O)c2nccs2)cc1 [Compound T, 2-(4-Octylphenoxy)-1-(thiazol-2-yl)ethanone] | 43
6 | CCCCCCCCCCCCOCC(=O)c1nc(C(=O)OCC)cs1 [Compound W, Ethyl 2-(2-(dodecyloxy)acetyl)thiazole-4-carboxylate] | 21
7 | CCCCCCCCCCCCOCC(=O)c1nc(CC(=O)OCC)cs1 [Compound X, Ethyl 2-(2-(2-(dodecyloxy)acetyl)thiazol-4-yl)acetate] | 0
8 | CCCCCCCCc1ccc(OCC(=O)c2nc(CC(=O)OCC)cs2)cc1 [Compound Y, Ethyl 2-(2-(2-(4-octylphenoxy)acetyl)thiazol-4-yl)acetate] | 25

Same assay, conditions: at 1 μM; printed in the IC50 column of Table 2; read-out: cPLA2 in vitro assay, % inh at 1 μM

Row | Compound | inhibition at 1 µM [%]
9 | O=C(COc1ccc(-c2ccccc2)cc1)c1nccs1 [Compound B, 2-(Biphenyl-4-yloxy)-1-(thiazol-2-yl)ethanone] | 35

Same assay, conditions: inhibitors tested in 0-3 μM range; read-out: cPLA2 vesicle assay IC50 (μm)

Row | Compound | IC50 [µM]
10 | O=C(COc1ccc(-c2ccccc2)cc1)c1nccs1 [Compound B, 2-(Biphenyl-4-yloxy)-1-(thiazol-2-yl)ethanone] | > 3
11 | O=C(COc1ccc(F)cc1)c1nccs1 [Compound C, 2-(4-Fluorophenoxy)-1-(thiazol-2-yl)ethanone] | > 3
12 | O=C(COc1ccccc1)c1nccs1 [Compound D, 2-Phenoxy-1-(thiazol-2-yl)ethanone] | > 3
13 | CCCCCCCCCCCCOCC(=O)c1nc(C(=O)OCC)cs1 [Compound W, Ethyl 2-(2-(dodecyloxy)acetyl)thiazole-4-carboxylate] | > 3
14 | CCCCCCCCc1ccc(OCC(=O)c2nc(CC(=O)OCC)cs2)cc1 [Compound Y, Ethyl 2-(2-(2-(4-octylphenoxy)acetyl)thiazol-4-yl)acetate] | > 3

Same assay, conditions: tested 0-5 μM; Tables 2 and 4; read-out: cPLA2 in vitro assay (0-5 μM) IC50

Row | Compound | IC50 [µM]
15 | CCCCCCCCc1ccc(OCC(=O)c2nc(C(=O)OC)cs2)cc1 [Compound A, Methyl 2-(2-(4-octylphenoxy)acetyl)thiazole-4-carboxylate] | ~0.3
16 | O=C(COc1ccc(F)cc1)c1nccs1 [Compound C, 2-(4-Fluorophenoxy)-1-(thiazol-2-yl)ethanone] | > 5
17 | O=C(COc1ccccc1)c1nccs1 [Compound D, 2-Phenoxy-1-(thiazol-2-yl)ethanone] | > 5

Same assay, conditions: vesicles assay; read-out: IC50 on GIVA cPLA2 in vesicles assay

Row | Compound | IC50 [µM]
18 | CCCCCCCCc1ccc(OCC(=O)c2nc(C(=O)OC)cs2)cc1 [Compound A, Methyl 2-(2-(4-octylphenoxy)acetyl)thiazole-4-carboxylate] | 0.3
19 | CCCCCCCCc1ccc(OCC(=O)c2nccs2)cc1 [Compound T, 2-(4-Octylphenoxy)-1-(thiazol-2-yl)ethanone] | 1.2

Target: T2, human GVIA iPLA2 (Homo sapiens, UniProt O60733)
T2 sequence (O60733 1-806): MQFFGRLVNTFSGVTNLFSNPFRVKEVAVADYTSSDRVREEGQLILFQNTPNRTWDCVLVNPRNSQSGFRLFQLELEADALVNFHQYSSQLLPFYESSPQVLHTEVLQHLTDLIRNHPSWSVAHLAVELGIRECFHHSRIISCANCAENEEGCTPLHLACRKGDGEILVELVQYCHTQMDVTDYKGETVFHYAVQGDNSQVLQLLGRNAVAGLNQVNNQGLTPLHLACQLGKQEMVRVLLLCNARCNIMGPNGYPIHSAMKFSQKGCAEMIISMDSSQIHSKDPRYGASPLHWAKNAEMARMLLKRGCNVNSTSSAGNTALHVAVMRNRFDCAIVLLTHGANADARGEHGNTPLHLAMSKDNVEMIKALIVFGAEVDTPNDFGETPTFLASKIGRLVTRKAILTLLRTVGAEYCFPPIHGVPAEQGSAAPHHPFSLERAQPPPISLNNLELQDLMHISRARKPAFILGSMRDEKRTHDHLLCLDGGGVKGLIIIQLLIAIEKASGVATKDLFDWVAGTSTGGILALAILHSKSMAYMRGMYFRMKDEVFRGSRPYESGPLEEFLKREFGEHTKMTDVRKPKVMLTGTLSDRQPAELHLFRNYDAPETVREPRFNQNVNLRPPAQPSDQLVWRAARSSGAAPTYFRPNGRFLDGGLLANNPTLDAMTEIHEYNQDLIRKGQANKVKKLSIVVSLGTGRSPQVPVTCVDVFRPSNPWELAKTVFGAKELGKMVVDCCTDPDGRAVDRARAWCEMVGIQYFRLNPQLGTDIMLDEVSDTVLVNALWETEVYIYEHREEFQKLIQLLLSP
Assay: In vitro mixed micelle assay, GVIA iPLA2
Assay type: biochemical
Settings: Tables 2 and 4
Procedure: At first, the percent of inhibition for each PLA2 enzyme at 0.091 mole fraction of each inhibitor was determined. […] The XI(50) is the mole fraction of the inhibitor in the total substrate interface required to inhibit the enzyme activity by 50%. […] (ii) GVI iPLA2 substrate mixed-micelles were composed of 400 μM Triton X-100, 98.3 μM PAPC, and 1.7 μM ^14C-labeled PAPC in buffer containing 100 mM HEPES, pH 7.5, 2 mM ATP, and 4 mM DTT; (iii) GV sPLA2 substrate mixed-micelles were composed of 400 μM Triton X-100, 98.3 μM PAPC, and 1.7 μM ^14C-labeled PAPC in buffer containing 50 mMTris, pH 8.0, and 5 mM […] CaCl2.

Row | Compound | GVIA iPLA2 % Inhibition [%]
20 | CCCCCCCCc1ccc(OCC(=O)c2nc(C(=O)OC)cs2)cc1 [Compound A, Methyl 2-(2-(4-octylphenoxy)acetyl)thiazole-4-carboxylate] | 86.4

Same assay, conditions: mixed micelles; 0.091 mole fraction of inhibitor; Table 6; read-out: GVIA iPLA2 % Inhib

Row | Compound | inhibition at 0.091 mole fraction [%]
21 | CCCCCCCCc1ccc(OCC(=O)c2nc(C(=O)OC)cs2)cc1 [Compound A, Methyl 2-(2-(4-octylphenoxy)acetyl)thiazole-4-carboxylate] | 86
22 | O=C(COc1ccc(-c2ccccc2)cc1)c1nccs1 [Compound B, 2-(Biphenyl-4-yloxy)-1-(thiazol-2-yl)ethanone] | 23
23 | O=C(COc1ccc(F)cc1)c1nccs1 [Compound C, 2-(4-Fluorophenoxy)-1-(thiazol-2-yl)ethanone] | 5
24 | O=C(COc1ccccc1)c1nccs1 [Compound D, 2-Phenoxy-1-(thiazol-2-yl)ethanone] | 13
25 | CCCCCCCCc1ccc(OCC(=O)c2nccs2)cc1 [Compound T, 2-(4-Octylphenoxy)-1-(thiazol-2-yl)ethanone] | 67
26 | CCCCCCCCCCCCOCC(=O)c1nc(C(=O)OCC)cs1 [Compound W, Ethyl 2-(2-(dodecyloxy)acetyl)thiazole-4-carboxylate] | 92
27 | CCCCCCCCCCCCOCC(=O)c1nc(CC(=O)OCC)cs1 [Compound X, Ethyl 2-(2-(2-(dodecyloxy)acetyl)thiazol-4-yl)acetate] | 91
28 | CCCCCCCCc1ccc(OCC(=O)c2nc(CC(=O)OCC)cs2)cc1 [Compound Y, Ethyl 2-(2-(2-(4-octylphenoxy)acetyl)thiazol-4-yl)acetate] | 76

Tested on: PGE2
Assay: PGE2-assay (Tables 2 and 4)
Assay type: cell-based
Settings: Table 2; head says % inhibition, cells print μM
From the text: Experimental procedures suitable for the formation and testing of these compounds can be found in WO2011/039365 as well as references cited therein.

Row | Compound | IC50 [µM]
29 | CCCCCCCCc1ccc(OCC(=O)c2nc(C(=O)OC)cs2)cc1 [Compound A, Methyl 2-(2-(4-octylphenoxy)acetyl)thiazole-4-carboxylate] | ~0.75
30 | O=C(COc1ccc(-c2ccccc2)cc1)c1nccs1 [Compound B, 2-(Biphenyl-4-yloxy)-1-(thiazol-2-yl)ethanone] | ~6

Tested on: not given
Assay: not given
Settings: not given

Row | Compound | melting point [°C]
31 | O=C(COc1ccc(-c2ccccc2)cc1)c1nccs1 [Compound B, 2-(Biphenyl-4-yloxy)-1-(thiazol-2-yl)ethanone] | 130 to 133
32 | O=C(COc1ccc(F)cc1)c1nccs1 [Compound C, 2-(4-Fluorophenoxy)-1-(thiazol-2-yl)ethanone] | 74 to 77
33 | O=C(COc1ccccc1)c1nccs1 [Compound D, 2-Phenoxy-1-(thiazol-2-yl)ethanone] | 77 to 79
